According to patent US20150037269A1, “TOPICAL COMPOSITIONS FOR TREATMENT OF EXCESSIVE SWEATING AND METHODS OF USE THEREOF” (GlaxoSmithKline Intellectual Property Development Limited, priority 2013, published 2015):

Legend:
[1] = Irritation potential of topical solution; conditions: solution comprising 2.2% w/w
[2] = MALDI imaging of distribution in skin layers; assay type: in vitro ADME, human; conditions: twenty-four hours after single finite topical dose
Excerpt: Matrix-assisted laser desorption/ionization (MALDI) has emerged as a powerful and diverse technology for analyzing the spatial distribution of endogenous and exogenous compounds directly from a tissue section. [See Seeley E H, Caprioli R M. MALDI imaging mass spectrometry of human tissue: method challenges and clinical perspectives. Trends Biotechnol. 29(3), 136-143 (2011); and Svatos A. Mass spectrometric imaging of small molecules. Trends Biotechnol. 28(8), 425-434 (2010)]. […] Anal Bioanal Chem. (2013); 405(4):1159-70]. MALDI imaging in human skin tissue sections: focus on various matrices and enzymes.

[3] = Clinical study: single radiolabelled topical dose to axilla or palm of healthy male subjects; assay type: in vivo, human; conditions: for Cmax: male, human, plasma, topical, 3.05 mg
Method: Up to four cohorts were to be enrolled (Cohort A: unoccluded axilla; Cohort B: occluded axilla; Cohort C: unoccluded palm; Cohort D: occluded palm). Six subjects were to be dosed in each cohort and complete the study procedures.
On the day of dosing, subjects will receive the study drug applied to the axilla or palm. Each subject will only receive a single dose of study drug which will be applied to the test site and remain on the application site for 8 hours. Serial blood samples will be collected throughout treatment. An interim analysis using simulations will be conducted after each cohort to determine the likelihood of exceeding the safety cover for Cmax or AUC and the likelihood of obtaining quantifiable concentrations sufficient to determine the half-life in the subsequent cohorts.

[4] = Population pharmacokinetic model (IV plus dermal occluded axilla data); assay type: in vivo, human
Excerpt: Of the drug that was available systemically, 9.70% (66.7%) was absorbed through a zero order process.

[5] = cited from earlier work
[6] = PopPK, IV and dermal occluded axilla

OC(c1ccccc1)(c1ccccc1)C12CC[N+](CCOCc3ccccc3)(CC1)CC2 [umeclidinium bromide]
irritation potential [1]: low irritation potential

OC(c1ccccc1)(c1ccccc1)C12CC[N+](CCOCc3ccccc3)(CC1)CC2 [umeclidinium, 4-[hydroxy(diphenyl)methyl]-1-{2-[(phenylmethyl)oxy]ethyl}-1-azoniabicyclo[2.2.2]octane]
qualitative distribution in skin layers [2]: penetrated to the deeper sections of the dermis and accumulated in the area where the sweat glands are present
Cmax ([3]; occluded axilla (Cohort B), CV 122%): 7.92 pg/mL
Cmax ([3]; unoccluded axilla (Cohort A), CV 144%): 2.33 pg/mL
samples quantifiable up to ([3]; occluded axilla (Cohort B), post dose): 16 to 72 h
mean percent dose recovered from the skin surface ([3]; occluded axilla (Cohort B), range 69.2%-81.7%): 75.4%
median time to maximum concentration ([3]; occluded axilla (Cohort B), range 2 h-24 h): 13 h
plasma concentrations ([3]; occluded palm (Cohort D)): no quantifiable plasma concentrations
mean percent dose recovered from the skin surface ([3]; occluded palm (Cohort D), range 45.6%-59.9%): 52.5%
mean percent dose recovered from the skin surface ([3]; unoccluded axilla (Cohort A), end of 8 hour application, range 77.7-84.1%): 80.6%
quantifiable plasma concentrations up to ([3]; unoccluded axilla (Cohort A), one subject, post-dose): up to 72 hours
median time to maximum plasma concentration ([3]; unoccluded axilla (Cohort A), range 12 h-30 h): 13 h
CL2 Intercompartmental Clearance, Mean (RSE %) [4, 6]: 39376 (26.0%) mL/h
CL Elimination clearance, Mean (RSE %) [4, 6]: 45241 (23.6%) mL/h
F1 Fraction of the bioavailable drug absorbed through a zero order process, Mean (RSE %) [4, 6]: 0.097 (66.7%)
Ka First order absorption rate constant, Mean (RSE %) [4, 6]: 0.094 (54.1%)
Tlag Lag time for the first order absorption process, Mean (RSE %) [4, 6]: 8.61 (15.3%) hr
V1 Volume of central compartment, Mean (RSE %) [4, 6]: 7726 (17.6%) mL
V2 Volume of peripheral compartment, Mean (RSE %) [4, 6]: 261058 (57.3%) mL
F Absolute plasma bioavailability following administration to occluded axilla, Mean (RSE %) ([4]; PopPK, fraction): 0.0019 (55.3%)
bioavailability ([4]; human, plasma, topical, 3.05 mg, occluded axilla, RSE 55.3%, read-out: estimated absolute plasma bioavailability): 0.19%
share of systemically available drug absorbed through a zero order process ([4]; occluded axilla, RSE 66.7%): 9.70%
tolerability in thorough QT study ([5]; 0.5 mg inhaled once daily for 10 days): well tolerated
tolerability in clinical development program ([5]; oral, intravenous and oral inhalation routes): well tolerated
